Experimental data reported in patent EP4678638A1, “NEW E3 UBIQUITIN LIGASE LIGAND, PROTEIN DEGRADATION AGENT AND USE THEREOF” (priority 2023, dated 2024).
Like-named read-outs stand apart in the source and are kept apart here.

What was measured:
Format in all cases: cell-based
IKZF2 = molecular target: T1, IKZF2 (Homo sapiens, UniProt Q96SW2+Q9UKS7); experiment: Western blot degradation of IKZF2 (hPBMC); conditions: Table D16
T1 construct: evaluate the effects of the compounds of the present disclosure on the expression of target proteins in cells; endogenous in cells; host or cells: hPBMC
T1 sequence (Q9UKS7 whole entry): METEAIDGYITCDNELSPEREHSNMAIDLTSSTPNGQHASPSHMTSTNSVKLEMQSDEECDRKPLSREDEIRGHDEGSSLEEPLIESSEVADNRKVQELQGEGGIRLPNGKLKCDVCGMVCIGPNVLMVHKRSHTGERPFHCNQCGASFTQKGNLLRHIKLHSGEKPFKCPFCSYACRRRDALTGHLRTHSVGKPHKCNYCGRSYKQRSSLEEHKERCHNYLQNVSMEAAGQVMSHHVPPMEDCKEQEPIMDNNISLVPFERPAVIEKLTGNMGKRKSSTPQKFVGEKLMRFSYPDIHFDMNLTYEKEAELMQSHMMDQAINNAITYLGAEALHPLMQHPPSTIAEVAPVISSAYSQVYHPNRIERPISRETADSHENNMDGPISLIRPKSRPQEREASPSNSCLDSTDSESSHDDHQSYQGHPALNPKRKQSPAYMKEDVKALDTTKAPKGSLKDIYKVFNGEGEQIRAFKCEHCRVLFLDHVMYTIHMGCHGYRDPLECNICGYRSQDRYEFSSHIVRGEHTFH
T1 sequence (Q96SW2 whole entry): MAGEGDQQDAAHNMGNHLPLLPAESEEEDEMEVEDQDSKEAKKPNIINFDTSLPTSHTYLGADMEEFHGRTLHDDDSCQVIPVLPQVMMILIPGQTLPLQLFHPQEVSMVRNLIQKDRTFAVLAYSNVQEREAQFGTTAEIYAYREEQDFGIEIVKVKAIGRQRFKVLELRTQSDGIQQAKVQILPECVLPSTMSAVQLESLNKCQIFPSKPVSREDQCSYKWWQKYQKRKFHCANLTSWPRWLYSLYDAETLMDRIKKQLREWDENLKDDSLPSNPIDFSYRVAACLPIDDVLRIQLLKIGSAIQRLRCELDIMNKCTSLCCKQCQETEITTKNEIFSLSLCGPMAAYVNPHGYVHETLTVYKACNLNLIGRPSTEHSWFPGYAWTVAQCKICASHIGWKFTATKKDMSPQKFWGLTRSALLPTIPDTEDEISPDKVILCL
T1 sequence (Q16531 whole entry partner): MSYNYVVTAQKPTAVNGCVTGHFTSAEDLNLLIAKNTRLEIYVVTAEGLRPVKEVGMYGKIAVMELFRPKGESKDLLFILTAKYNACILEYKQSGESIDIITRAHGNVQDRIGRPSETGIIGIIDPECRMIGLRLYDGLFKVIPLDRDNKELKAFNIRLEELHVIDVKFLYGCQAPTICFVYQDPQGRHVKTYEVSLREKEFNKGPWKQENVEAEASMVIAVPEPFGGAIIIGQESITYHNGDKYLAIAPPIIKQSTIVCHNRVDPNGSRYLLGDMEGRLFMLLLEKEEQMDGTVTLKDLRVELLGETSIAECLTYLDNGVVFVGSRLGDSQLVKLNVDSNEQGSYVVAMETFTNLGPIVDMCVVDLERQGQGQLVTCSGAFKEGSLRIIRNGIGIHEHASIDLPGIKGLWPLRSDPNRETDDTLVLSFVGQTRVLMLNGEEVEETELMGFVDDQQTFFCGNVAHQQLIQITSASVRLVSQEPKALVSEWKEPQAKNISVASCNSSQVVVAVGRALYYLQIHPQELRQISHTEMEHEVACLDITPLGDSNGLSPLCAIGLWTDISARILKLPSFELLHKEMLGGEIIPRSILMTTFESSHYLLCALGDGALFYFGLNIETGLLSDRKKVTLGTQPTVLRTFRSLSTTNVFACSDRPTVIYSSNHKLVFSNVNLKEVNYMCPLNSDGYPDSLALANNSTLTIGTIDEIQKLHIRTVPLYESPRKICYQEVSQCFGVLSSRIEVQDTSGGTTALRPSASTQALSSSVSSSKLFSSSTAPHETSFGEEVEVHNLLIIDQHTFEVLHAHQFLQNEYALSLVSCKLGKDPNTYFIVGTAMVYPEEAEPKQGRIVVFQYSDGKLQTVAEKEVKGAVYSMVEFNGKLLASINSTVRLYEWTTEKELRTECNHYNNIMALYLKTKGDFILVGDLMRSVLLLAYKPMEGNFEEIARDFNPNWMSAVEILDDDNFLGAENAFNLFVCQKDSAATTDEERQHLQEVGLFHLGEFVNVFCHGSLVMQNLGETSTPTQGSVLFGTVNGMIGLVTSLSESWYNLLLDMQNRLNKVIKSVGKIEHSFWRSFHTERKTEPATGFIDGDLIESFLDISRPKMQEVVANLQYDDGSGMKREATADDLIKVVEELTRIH
Method in brief: (§1)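 Quantification by ImageJ densitometry of Western blot bands: DC50 is the fitted concentration halving band intensity relative to DMSO. Percent remaining uses internal-control normalization, and degradation rate is its complement.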

MM.1S = experiment: CCK-8 proliferation, MM.1S; conditions: Homo sapiens, MM1.S, read-out: Inhibitory activity (IC50) on tumor cell proliferation, MM1S
Method in brief: (§2)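 Cells seeded, then after 24 h treated with 10 concentrations (top 10 µM, 5-fold serial dilution) for a line-specific time at 37°C, 5% CO2. Viability read by CCK-8; IC50 fitted from growth-inhibition curves.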

CK1a = molecular target: T2, CK1a (Homo sapiens, UniProt P48729+Q96SW2); experiment: Western blot degradation of CK1a (hPBMC); conditions: Table D16
T2 construct: evaluate the effects of the compounds of the present disclosure on the expression of target proteins in cells; endogenous in cells; host or cells: hPBMC
T2 sequence (P48729 whole entry): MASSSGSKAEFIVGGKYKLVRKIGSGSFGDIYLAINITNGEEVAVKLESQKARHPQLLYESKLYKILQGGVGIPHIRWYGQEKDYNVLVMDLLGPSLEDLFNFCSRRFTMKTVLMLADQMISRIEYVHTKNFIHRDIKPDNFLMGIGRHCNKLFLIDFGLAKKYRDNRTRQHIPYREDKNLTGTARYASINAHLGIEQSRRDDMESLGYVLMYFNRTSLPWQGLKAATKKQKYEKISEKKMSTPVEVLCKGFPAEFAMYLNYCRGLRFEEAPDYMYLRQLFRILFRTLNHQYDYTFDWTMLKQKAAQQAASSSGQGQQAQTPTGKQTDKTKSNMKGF
T2 sequence (Q96SW2 whole entry): as the sequence (Q96SW2 whole entry) above
T2 sequence (Q16531 whole entry partner): as the sequence (Q16531 whole entry partner) above
Method in brief: as §1

GSPT1 = molecular target: T3, GSPT1 (Homo sapiens, UniProt P15170+Q96SW2); experiment: Western blot degradation of GSPT1 (hPBMC); conditions: Table D16
T3 construct: evaluate the effects of the compounds of the present disclosure on the expression of target proteins in cells; endogenous in cells; host or cells: hPBMC
Method in brief: as §1

IKZF3 = molecular target: T4, IKZF3 (Homo sapiens, UniProt Q96SW2+Q9UKT9); experiment: Western blot degradation of IKZF3 (hPBMC); conditions: Table D16
T4 construct: evaluate the effects of the compounds of the present disclosure on the expression of target proteins in cells; endogenous in cells; host or cells: hPBMC
T4 sequence (Q9UKT9 whole entry): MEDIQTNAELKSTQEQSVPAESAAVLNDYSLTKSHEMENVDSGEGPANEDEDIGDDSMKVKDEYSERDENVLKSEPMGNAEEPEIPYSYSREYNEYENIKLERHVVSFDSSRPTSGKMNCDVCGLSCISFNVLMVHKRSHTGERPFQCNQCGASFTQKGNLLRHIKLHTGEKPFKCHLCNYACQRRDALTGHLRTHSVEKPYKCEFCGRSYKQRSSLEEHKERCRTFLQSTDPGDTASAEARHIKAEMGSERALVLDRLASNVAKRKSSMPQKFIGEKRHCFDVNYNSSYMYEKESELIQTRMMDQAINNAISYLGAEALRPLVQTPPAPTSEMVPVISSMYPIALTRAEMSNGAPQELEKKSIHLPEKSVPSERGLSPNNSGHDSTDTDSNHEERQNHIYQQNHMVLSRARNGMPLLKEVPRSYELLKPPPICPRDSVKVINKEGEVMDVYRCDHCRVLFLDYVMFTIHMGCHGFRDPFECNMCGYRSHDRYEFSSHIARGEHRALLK
T4 sequence (Q96SW2 whole entry): as the sequence (Q96SW2 whole entry) above
T4 sequence (Q16531 whole entry partner): as the sequence (Q16531 whole entry partner) above
Method in brief: as §1

IKZF1 = molecular target: T5, IKZF1 (Homo sapiens, UniProt Q13422+Q96SW2); experiment: Western blot degradation of IKZF1 (hPBMC); conditions: Table D16
T5 construct: evaluate the effects of the compounds of the present disclosure on the expression of target proteins in cells; endogenous in cells; host or cells: hPBMC
T5 sequence (Q13422 whole entry): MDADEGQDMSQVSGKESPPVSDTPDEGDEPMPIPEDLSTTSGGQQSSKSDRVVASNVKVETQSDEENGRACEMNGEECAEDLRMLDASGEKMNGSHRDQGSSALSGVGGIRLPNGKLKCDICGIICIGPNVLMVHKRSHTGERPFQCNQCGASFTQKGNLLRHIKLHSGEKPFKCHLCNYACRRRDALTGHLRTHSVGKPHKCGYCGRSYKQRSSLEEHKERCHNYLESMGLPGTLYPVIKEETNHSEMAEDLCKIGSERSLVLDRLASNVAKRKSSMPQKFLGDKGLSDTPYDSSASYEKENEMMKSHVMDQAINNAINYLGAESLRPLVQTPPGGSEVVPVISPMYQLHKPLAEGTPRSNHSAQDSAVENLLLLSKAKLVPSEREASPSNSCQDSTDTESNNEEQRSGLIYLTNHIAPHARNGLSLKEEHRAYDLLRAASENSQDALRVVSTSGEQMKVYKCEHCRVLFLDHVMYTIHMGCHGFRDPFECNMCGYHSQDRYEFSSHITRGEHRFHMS
T5 sequence (Q96SW2 whole entry): as the sequence (Q96SW2 whole entry) above
T5 sequence (Q16531 whole entry partner): as the sequence (Q16531 whole entry partner) above
Method in brief: as §1

WEE1 = molecular target: T6, WEE1 (Homo sapiens, UniProt P30291+Q96SW2); experiment: Western blot degradation of WEE1 (hPBMC); conditions: Table D16
T6 construct: evaluate the effects of the compounds of the present disclosure on the expression of target proteins in cells; endogenous in cells; host or cells: hPBMC
T6 sequence (P30291 whole entry): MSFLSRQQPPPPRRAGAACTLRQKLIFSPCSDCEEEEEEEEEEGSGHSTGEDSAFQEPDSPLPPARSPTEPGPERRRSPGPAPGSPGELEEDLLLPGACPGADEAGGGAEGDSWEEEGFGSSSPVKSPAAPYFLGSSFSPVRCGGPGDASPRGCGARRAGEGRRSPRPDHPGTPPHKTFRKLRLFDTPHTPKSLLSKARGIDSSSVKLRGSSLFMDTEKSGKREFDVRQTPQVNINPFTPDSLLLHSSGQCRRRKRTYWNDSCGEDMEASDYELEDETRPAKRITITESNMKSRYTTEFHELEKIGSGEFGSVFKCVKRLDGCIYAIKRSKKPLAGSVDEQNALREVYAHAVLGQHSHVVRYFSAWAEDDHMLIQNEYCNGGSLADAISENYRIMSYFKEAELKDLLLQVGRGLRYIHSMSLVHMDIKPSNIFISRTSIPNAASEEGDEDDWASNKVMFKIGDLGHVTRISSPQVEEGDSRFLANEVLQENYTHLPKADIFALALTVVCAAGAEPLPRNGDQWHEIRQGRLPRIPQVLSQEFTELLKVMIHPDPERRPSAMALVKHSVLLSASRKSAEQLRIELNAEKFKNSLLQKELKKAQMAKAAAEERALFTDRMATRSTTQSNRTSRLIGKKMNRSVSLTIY
T6 sequence (Q96SW2 whole entry): as the sequence (Q96SW2 whole entry) above
T6 sequence (Q16531 whole entry partner): as the sequence (Q16531 whole entry partner) above
Method in brief: as §1

MCF7 = experiment: CCK-8 proliferation, MCF7 (MCF-7); conditions: Homo sapiens
Method in brief: as §2

[1] = MCF7, CCK-8, read-out: Inhibitory activity (IC50) on tumor cell proliferation, MCF-7

IC50 (MM.1S; CCK-8, 72 hours)	IC50 (MCF7; [1])	SMILES	Degradation of substrate protein IKZF2 (substrate protein remaining %) (IKZF2)	Degradation of substrate protein CKla (substrate protein remaining %) (CK1a)	Degradation of substrate protein GSPT1 (substrate protein remaining %) (GSPT1)	Degradation of substrate protein IKZF3 (substrate protein remaining %) (IKZF3)	Degradation of substrate protein IKZF1 (substrate protein remaining %) (IKZF1)	Degradation of substrate protein WEE1 (substrate protein remaining %) (WEE1)	IC50 (MM.1S; 72 h)	IC50 (MCF7; MCF7, read-out: Inhibitory activity (IC50) on tumor cell proliferation, MCF-7)
1000 to 5000 nM		O=Cc1cnc(NC2CCC(=O)NC2=O)nc1 (centres unmarked) [GT-07367, 2-((2,6-Dioxopiperidin-3-yl)amino)pyrimidine-5-carbaldehyde]	B (B is defined as substrate protein remaining % > 80%)	A (A is defined as 0% ≤ substrate protein remaining % ≤ 80%)	A (A is defined as 0% ≤ substrate protein remaining % ≤ 80%)	B (B is defined as substrate protein remaining % > 80%)	B (B is defined as substrate protein remaining % > 80%)	B (B is defined as substrate protein remaining % > 80%)		
		CC(C)(C)[Si](C)(C)OCc1ccc(NC2CCC(=O)NC2=O)nc1 (centres unmarked) [GT-07552, 3-((5-(((tert-Butyldimethylsilyl)oxy)methyl)pyridin-2-yl)amino)piperidine-2,6-dione]	A (A is defined as 0% ≤ substrate protein remaining % ≤ 80%)	B (B is defined as substrate protein remaining % > 80%)	B (B is defined as substrate protein remaining % > 80%)	B (B is defined as substrate protein remaining % > 80%)	B (B is defined as substrate protein remaining % > 80%)	B (B is defined as substrate protein remaining % > 80%)	1000 to 5000 nM	
	1000 to 5000 nM	O=C1CCC(Nc2cc(CO)ccn2)C(=O)N1 (centres unmarked) [GT-07366, 3-((4-(Hydroxymethyl)pyridin-2-yl)amino)piperidine-2,6-dione]	B (B is defined as substrate protein remaining % > 80%)	A (A is defined as 0% ≤ substrate protein remaining % ≤ 80%)	A (A is defined as 0% ≤ substrate protein remaining % ≤ 80%)	B (B is defined as substrate protein remaining % > 80%)	B (B is defined as substrate protein remaining % > 80%)	B (B is defined as substrate protein remaining % > 80%)		
	1000 to 5000 nM	O=C1CCC(Nc2cc(CO)c(F)cn2)C(=O)N1 (centres unmarked) [GT-07725, 3-((5-fluoro-4-(hydroxymethyl)pyridin-2-yl)amino)piperidine-2,6-dione]	A (A is defined as 0% ≤ substrate protein remaining % ≤ 80%)	B (B is defined as substrate protein remaining % > 80%)	A (A is defined as 0% ≤ substrate protein remaining % ≤ 80%)	A (A is defined as 0% ≤ substrate protein remaining % ≤ 80%)	A (A is defined as 0% ≤ substrate protein remaining % ≤ 80%)	A (A is defined as 0% ≤ substrate protein remaining % ≤ 80%)		
	1000 to 5000 nM	NCc1cncc(N2CCC(=O)NC2=O)c1 [GT-07077, 1-(5-(Aminomethyl)pyridin-3-yl)dihydropyrimidine-2,4(1H,3H)-dione]	B (B is defined as substrate protein remaining % > 80%)	B (B is defined as substrate protein remaining % > 80%)	A (A is defined as 0% ≤ substrate protein remaining % ≤ 80%)	B (B is defined as substrate protein remaining % > 80%)	B (B is defined as substrate protein remaining % > 80%)	B (B is defined as substrate protein remaining % > 80%)		
	1000 to 5000 nM	O=C1CCC(Nc2ccc(CO)nc2)C(=O)N1 (centres unmarked) [GT-07446, 3-((6-(Hydroxymethyl)pyridin-3-yl)amino)piperidine-2,6-dione]	A (A is defined as 0% ≤ substrate protein remaining % ≤ 80%)	A (A is defined as 0% ≤ substrate protein remaining % ≤ 80%)	A (A is defined as 0% ≤ substrate protein remaining % ≤ 80%)	A (A is defined as 0% ≤ substrate protein remaining % ≤ 80%)	A (A is defined as 0% ≤ substrate protein remaining % ≤ 80%)	A (A is defined as 0% ≤ substrate protein remaining % ≤ 80%)		
	1000 to 5000 nM	O=C1CCC(Nc2ccc(CO)cn2)C(=O)N1 (centres unmarked) [GT-07551, 3-((5-(Hydroxymethyl)pyridin-2-yl)amino)piperidine-2,6-dione]	A (A is defined as 0% ≤ substrate protein remaining % ≤ 80%)	B (B is defined as substrate protein remaining % > 80%)	B (B is defined as substrate protein remaining % > 80%)	B (B is defined as substrate protein remaining % > 80%)	B (B is defined as substrate protein remaining % > 80%)	A (A is defined as 0% ≤ substrate protein remaining % ≤ 80%)		
	1000 to 5000 nM	O=Cc1cncc(NC2CCC(=O)NC2=O)c1 (centres unmarked) [GT-07554, 5-((2,6-Dioxopiperidin-3-yl)amino)nicotinaldehyde]	A (A is defined as 0% ≤ substrate protein remaining % ≤ 80%)	A (A is defined as 0% ≤ substrate protein remaining % ≤ 80%)	B (B is defined as substrate protein remaining % > 80%)	A (A is defined as 0% ≤ substrate protein remaining % ≤ 80%)	A (A is defined as 0% ≤ substrate protein remaining % ≤ 80%)	A (A is defined as 0% ≤ substrate protein remaining % ≤ 80%)		
	1000 to 5000 nM	O=C1CCC(Nc2ncncc2CO)C(=O)N1 (centres unmarked) [GT-07727, 3-((5-(Hydroxymethyl)pyrimidin-4-yl)amino)piperidine-2,6-dione]	A (A is defined as 0% ≤ substrate protein remaining % ≤ 80%)	B (B is defined as substrate protein remaining % > 80%)	B (B is defined as substrate protein remaining % > 80%)	A (A is defined as 0% ≤ substrate protein remaining % ≤ 80%)	A (A is defined as 0% ≤ substrate protein remaining % ≤ 80%)	A (A is defined as 0% ≤ substrate protein remaining % ≤ 80%)		
	1000 to 5000 nM	O=C1CCC(c2ncccc2CO)C(=O)N1 (centres unmarked) [GT-07370, 3-(3-(Hydroxymethyl)pyridin-2-yl)piperidine-2,6-dione]	B (B is defined as substrate protein remaining % > 80%)	A (A is defined as 0% ≤ substrate protein remaining % ≤ 80%)	A (A is defined as 0% ≤ substrate protein remaining % ≤ 80%)	B (B is defined as substrate protein remaining % > 80%)	B (B is defined as substrate protein remaining % > 80%)	B (B is defined as substrate protein remaining % > 80%)		
		CC(C)(C)[Si](C)(C)OCc1ccc(NC2CCC(=O)NC2=O)nn1 (centres unmarked) [GT-07726, 3-((6-(((tert-Butyldimethylsilyl)oxy)methyl)pyridazin-3-yl)amino)piperidine-2,6-dione]	A (A is defined as 0% ≤ substrate protein remaining % ≤ 80%)	B (B is defined as substrate protein remaining % > 80%)	B (B is defined as substrate protein remaining % > 80%)	A (A is defined as 0% ≤ substrate protein remaining % ≤ 80%)	A (A is defined as 0% ≤ substrate protein remaining % ≤ 80%)	A (A is defined as 0% ≤ substrate protein remaining % ≤ 80%)		1000 to 5000 nM
